Results on one molecule are retold here after patent publication EP4692082A1, “CRYSTAL FORM OF 2,6-PIPERIDINEDIONE COMPOUND, AND PREPARATION METHOD THEREFOR AND USE THEREOF” (Zhangzhou Pien Tze Huang Pharmaceutical Co., Ltd., priority 2023, dated 2024).

Structures can show the parent of a compound that is named as a salt.

One data set deals with T1, IRAK4 (Homo sapiens, UniProt Q9NWZ3).
T1 construct: expressed in transfected cells; host or cells: K562 IRAK4-HiBiT cells
T1 sequence (Q9NWZ3 1-460): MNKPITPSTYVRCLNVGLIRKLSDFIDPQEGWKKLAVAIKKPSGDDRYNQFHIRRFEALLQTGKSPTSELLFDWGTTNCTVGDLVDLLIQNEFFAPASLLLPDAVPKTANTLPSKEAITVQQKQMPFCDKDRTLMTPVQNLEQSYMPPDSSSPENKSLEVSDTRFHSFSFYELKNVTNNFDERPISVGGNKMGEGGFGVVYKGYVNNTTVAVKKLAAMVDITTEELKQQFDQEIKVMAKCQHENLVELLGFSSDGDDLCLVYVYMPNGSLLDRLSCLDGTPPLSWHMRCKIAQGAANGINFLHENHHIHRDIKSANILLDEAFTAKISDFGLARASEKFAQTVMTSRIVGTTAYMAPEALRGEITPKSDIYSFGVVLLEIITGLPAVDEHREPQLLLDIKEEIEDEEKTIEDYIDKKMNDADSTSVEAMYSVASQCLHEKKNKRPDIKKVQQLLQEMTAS
Briefly: Target protein degradation in K562 IRAK4-HiBiT cells (Nano-Glo HiBiT). It is filed as cell-based. Here is the method: • Cells: K562 IRAK4-HiBiT cells • Culture medium: RPMI 1640 + 10% fetal bovine serum + 2 mM glutamine + 1 mM sodium pyruvate + penicillin/streptomycin • Positive control: 1000 nM; negative control: 0.1% DMSO Table 6. Reagents and consumables […]
• (1) The cell culture medium was discarded, and the cells were washed once with DPBS, digested with trypsin, and counted to prepare a cell suspension of […]. • (2) 25 µL/well of cell suspension was added to the assay plate containing the test compound using Multidrop Combi at medium speed. • (3) The assay plate containing cells was returned to an incubator with 5% CO2 at 37°C and incubated for 16 to 18 hours.
• (1) 25 µL/well of assay reagent (NanoGlo lysis buffer + substrate + LgBit protein) was added to the assay plate using Multidrop Combi at high speed, and the plate was shaken for 10 minutes. • (2) The plate was centrifuged at 2000 rpm for 1 minute to remove air bubbles. • (3) The plate was read on Envision using US Luminescence detection method.
The degradation rate (DR) of the test compound was calculated using the following formula: DR (%) = (RLU vehicle control - RLU compound)/(RLU vehicle control - RLU positive control)*100%, where the vehicle control served as the blank control. […]
Background: HiBiT is a short tag that completes a luciferase, so light tracks the accessible tagged protein.

The target of another data set is IKZF1 (Homo sapiens, UniProt Q13422+Q96SW2). As to the kind of experiment: In cell western analysis of IKZF1 protein expression level in MM.1S cells.
A further data set deals with IKZF3 (Homo sapiens, UniProt Q96SW2+Q9UKT9). As to the kind of experiment: In cell western analysis of IKZF3 protein expression level in MM.1S cells.
Data set [1] in a line: Pharmacokinetic evaluation in mice. The class given is in vivo, C57BL/6 or C57 mice. An excerpt:
C57BL/6 or C57 male mice were selected as the test animals for this study. The LC/MS/MS method was employed to quantitatively determine the plasma drug concentrations at various time points after intravenous injection or intragastric administration of the test compound, aiming to evaluate the pharmacokinetic characteristics of the compound of the present disclosure in mice.
C57BL/6 or C57 mice (male, 20 to 30g, 7 to 10 weeks old, Beijing Vital River).
A clear solution of the test compound was injected intravenously into the tail vein of C57BL/6 mice (fasted overnight) (vehicle: 10% DMSO/10% solutol/80% H2O), or administered intragastrically to C57 mice (fed). […] The mixture was thoroughly vortexed and mixed, and centrifuged at 6000 g for 3 minutes at 2 to 8°C. […] The mixture was thoroughly vortexed and mixed, and centrifuged at 6000 g for 3 minutes at 2 to 8°C. Plasma drug concentrations were determined by the LC-MS/MS method, and relevant pharmacokinetic parameters were calculated using Phoenix WinNonlin 8.2.0 pharmacokinetic software with non-compartmental model linear-log trapezoidal method. Table 20. Pharmacokinetic parameters of the compound of the present disclosure in mice

Data set [2] in a line: Pharmacokinetic evaluation in beagle dogs. It is filed as in vivo. The following applies: Beagle dogs (fed). The source says: Male beagle dogs were selected as the experimental animals in this study. The LC/MS/MS method was employed to quantitatively determine the plasma drug concentrations at different time points after intravenous injection or intragastric administration of the test compound, aiming to evaluate the pharmacokinetic characteristics of the compound of the present disclosure in beagle dogs.
Beagle dogs (male, 7 to 10 kg, Beijing Mars Biotechnology Co., Ltd.).
A solution of the test compound was slowly injected intravenously into beagle dogs (fed) via the peripheral vein (vehicle: 5% DMSO/10% Solutol/85% H2O), or administered intragastrically to beagle dogs (fed). For intravenous administration, 0.5 mL of blood was collected from the peripheral vein at 0.083, 0.25, 0.5, 1, 2, 4, 6, 8, and 24 h after administration, placed in EDTA-2K anticoagulant tubes, and centrifuged at 3200 g for 10 minutes at 2 to 8°C to separate the supernatant. For intragastric administration, 0.5 mL of blood was collected from the peripheral vein at 0.083, 0.25, 0.5, 1, 2, 4, 6, 8, and 24 h after administration, placed in EDTA-2K anticoagulant tubes, and centrifuged at 3200 g for 10 minutes at 2 to 8°C to separate the supernatant. Plasma drug concentrations were determined by the LC-MS/MS method, and relevant pharmacokinetic parameters were calculated using Phoenix WinNonlin 6.3 or 8.3.5 pharmacokinetic software with non-compartmental model linear-log trapezoidal method.

[3] abbreviates: MM1.S, read-out: Maximum Degradation Rate Dmax.
The mark [4] stands for this setting: Intragastric administration (10 mg/kg) (fed).
Setting [5] is: Intragastric Administration, 5 mg/kg.
[6] abbreviates: Intragastric Administration, 15 mg/kg.
Where [7] appears, read: Intravenous Injection (0.5 mg/kg).

IKZF1, sequence (Q13422 whole entry): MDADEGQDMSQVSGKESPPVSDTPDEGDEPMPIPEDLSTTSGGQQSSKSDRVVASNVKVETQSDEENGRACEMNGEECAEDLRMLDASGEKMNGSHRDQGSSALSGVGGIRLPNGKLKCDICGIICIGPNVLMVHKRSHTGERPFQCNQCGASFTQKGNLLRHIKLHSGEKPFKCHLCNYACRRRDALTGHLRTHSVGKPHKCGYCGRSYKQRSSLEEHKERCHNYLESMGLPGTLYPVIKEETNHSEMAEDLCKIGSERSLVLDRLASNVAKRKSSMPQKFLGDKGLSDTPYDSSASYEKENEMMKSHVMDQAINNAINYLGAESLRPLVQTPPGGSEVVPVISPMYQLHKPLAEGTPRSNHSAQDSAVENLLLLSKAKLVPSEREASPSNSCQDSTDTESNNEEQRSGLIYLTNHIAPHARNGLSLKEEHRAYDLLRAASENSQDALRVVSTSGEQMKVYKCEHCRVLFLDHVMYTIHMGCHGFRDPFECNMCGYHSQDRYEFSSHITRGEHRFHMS
IKZF1, sequence (Q96SW2 whole entry): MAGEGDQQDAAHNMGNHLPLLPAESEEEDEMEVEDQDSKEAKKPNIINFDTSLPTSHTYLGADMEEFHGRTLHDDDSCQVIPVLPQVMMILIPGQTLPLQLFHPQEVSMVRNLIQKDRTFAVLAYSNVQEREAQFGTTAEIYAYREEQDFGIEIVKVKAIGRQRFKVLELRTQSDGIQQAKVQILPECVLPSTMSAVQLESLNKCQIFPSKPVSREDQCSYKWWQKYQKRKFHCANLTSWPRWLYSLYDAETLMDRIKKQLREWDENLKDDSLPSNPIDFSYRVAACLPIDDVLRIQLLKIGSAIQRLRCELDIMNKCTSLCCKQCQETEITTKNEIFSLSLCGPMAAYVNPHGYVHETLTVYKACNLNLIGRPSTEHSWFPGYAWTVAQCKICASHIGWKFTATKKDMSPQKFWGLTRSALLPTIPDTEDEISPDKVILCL
IKZF1, sequence (Q16531 whole entry partner): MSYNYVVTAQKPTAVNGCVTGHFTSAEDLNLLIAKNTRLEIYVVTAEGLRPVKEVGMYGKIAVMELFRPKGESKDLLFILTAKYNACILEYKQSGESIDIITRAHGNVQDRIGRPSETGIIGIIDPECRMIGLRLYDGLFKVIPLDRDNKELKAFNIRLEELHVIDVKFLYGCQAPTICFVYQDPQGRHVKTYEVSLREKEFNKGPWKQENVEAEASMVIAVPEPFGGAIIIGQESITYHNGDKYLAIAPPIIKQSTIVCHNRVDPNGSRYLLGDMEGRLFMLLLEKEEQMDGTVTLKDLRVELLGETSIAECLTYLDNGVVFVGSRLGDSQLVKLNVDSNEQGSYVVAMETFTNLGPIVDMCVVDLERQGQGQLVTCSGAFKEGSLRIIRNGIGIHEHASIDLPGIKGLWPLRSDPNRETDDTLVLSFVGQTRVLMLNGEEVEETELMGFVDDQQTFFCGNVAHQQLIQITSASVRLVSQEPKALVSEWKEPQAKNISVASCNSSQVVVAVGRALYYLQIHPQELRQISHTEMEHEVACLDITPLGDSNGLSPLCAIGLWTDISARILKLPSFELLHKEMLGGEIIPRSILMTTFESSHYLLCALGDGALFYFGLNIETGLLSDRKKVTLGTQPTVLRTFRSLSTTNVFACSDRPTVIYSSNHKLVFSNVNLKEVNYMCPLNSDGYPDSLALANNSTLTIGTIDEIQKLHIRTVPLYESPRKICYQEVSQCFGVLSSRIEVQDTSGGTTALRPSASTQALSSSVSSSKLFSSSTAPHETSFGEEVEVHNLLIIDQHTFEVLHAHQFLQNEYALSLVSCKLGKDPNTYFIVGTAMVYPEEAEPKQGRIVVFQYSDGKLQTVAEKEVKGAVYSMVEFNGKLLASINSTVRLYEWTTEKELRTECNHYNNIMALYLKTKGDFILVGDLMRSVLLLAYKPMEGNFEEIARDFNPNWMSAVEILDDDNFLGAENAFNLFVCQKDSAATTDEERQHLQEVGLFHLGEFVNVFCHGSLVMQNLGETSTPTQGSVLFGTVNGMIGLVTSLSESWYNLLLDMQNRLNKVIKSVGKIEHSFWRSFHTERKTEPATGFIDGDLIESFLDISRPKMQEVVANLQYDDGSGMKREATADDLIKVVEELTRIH
IKZF3, sequence (Q9UKT9 whole entry): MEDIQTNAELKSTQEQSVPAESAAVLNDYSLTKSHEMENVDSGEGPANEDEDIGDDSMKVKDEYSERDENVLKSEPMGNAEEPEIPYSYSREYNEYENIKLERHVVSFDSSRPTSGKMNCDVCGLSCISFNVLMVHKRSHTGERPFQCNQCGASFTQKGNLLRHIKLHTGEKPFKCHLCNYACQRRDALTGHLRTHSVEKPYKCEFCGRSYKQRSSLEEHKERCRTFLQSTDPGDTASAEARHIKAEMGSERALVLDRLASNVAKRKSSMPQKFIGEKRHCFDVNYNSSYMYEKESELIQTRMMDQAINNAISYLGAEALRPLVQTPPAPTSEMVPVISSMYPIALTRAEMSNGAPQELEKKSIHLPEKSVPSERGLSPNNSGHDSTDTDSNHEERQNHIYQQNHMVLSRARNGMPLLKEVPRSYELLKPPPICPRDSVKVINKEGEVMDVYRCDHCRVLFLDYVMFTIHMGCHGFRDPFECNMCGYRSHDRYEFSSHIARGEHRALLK
IKZF3, sequence (Q96SW2 whole entry): as the sequence (Q96SW2 whole entry) above
IKZF3, sequence (Q16531 whole entry partner): as the sequence (Q16531 whole entry partner) above
Description for IKZF1: (§1) • 1) MM.1S cells in the logarithmic growth phase were seeded into a 96-well plate at 1.2x10^5 cells per well and cultured overnight. • 2) On the second day, drug treatment was initiated with a starting concentration of 300 nM, followed by a 3-fold dilution in triplicate wells, with 10 concentration gradients (containing DMSO), and incubated for 24 hours in a culture incubator. • 3) The mixture was centrifuged, and the cell supernatant was carefully removed. […] The mixture was incubated at room temperature on a shaker for 5 min. • 12) The washing step was repeated 4 times. • 13) The secondary antibody diluent was prepared by adding Tween 20 to the Licor [sequence] blocking buffer at a final concentration of 0.2%. • 14) The fluorescent secondary antibody was diluted in the dark (1:800 dilution). To 400 µL of the secondary antibody diluent, 0.5 µLeach of IRDye 800CW and IRDye 680CW was added (the corresponding fluorescent secondary antibody for the primary antibody). • 15) 50 µL of the diluted fluorescent secondary antibody was added to each well, followed by incubation at room temperature on a shaker in the dark for 60 min. • 16) The secondary antibody was removed, and 200 µL of PBST was added along the well wall without touching the bottom cells. […]
(§2) GraphPad Prism 6 software was utilized to fit the curve with the inhibition rate data, and the DC50 value was calculated.
Description for IKZF3: as §1, §2

Consider `O=C1CCC(c2noc3ccc4c(NC(=O)CN5CCN(C[C@H]6CC[C@H](n7cc(NC(=O)c8coc(-c9ccnc(NCC%10CC%10)c9)n8)c(C(F)F)n7)CC6)CC5)cccc4c23)C(=O)N1` (relative stereo) [Hydrochloride of Compound of Formula (I)], for which the Dmax at IRAK4 (K562, read-out: Maximum Degradation Rate) worked out at 108%; on IKZF1 (setting [3]), 72.3%; at IKZF3 (setting [3]), 73.5%. Also, the DC50 at IRAK4 (K562 IRAK4-HiBiT cells, incubated 16 to 18 hours) was found to be 4.87 nM; on IKZF1 (IKZF1, MM.1S cells, 24 hours) it was 23.4 nM; on IKZF3 (IKZF3, MM.1S cells, 24 hours), 20.6 nM. The “Area Under the Drug-Time Curve (0-inf)” value is 4.47 µM·h in data set [1] (setting [4]); 5.40 µM·h in data set [1] (Intravenous Injection (2 mg/kg) (fasted)); 3.20 µM·h in data set [2] (setting [5]); 8.02 µM·h in data set [2] (setting [6]); 0.44 µM·h in data set [2] (setting [7]). Besides, the entries for the “Peak Concentration” value in data set [1] (setting [4]), in data set [2] (setting [5]) and in data set [2] (setting [6]) were 0.54 µM, 0.41 µM and 0.87 µM, respectively. The “Time to Peak Concentration” value is on record as 1.00 h in data set [1] (setting [4]), 4.00 h in data set [2] (setting [5]) and 4.00 h in data set [2] (setting [6]). In data set [2] (setting [7]), the “Apparent Distribution Volume” value was determined as 5.83 L/kg.
